For 2 compounds, IC50 results are on record in ChEMBL document CHEMBL4007387, “Therapeutic evolution of benzimidazole derivatives in the last quinquennial period” (Eur J Med Chem, 2017).

As usually defined, the IC50 is the concentration at which inhibition is half-maximal. Read a high IC50 as a need for much substance.

The test system of test [1] is HeLa. The test is described as follows: Antiproliferative activity against human HeLa cells after 48 hrs by MTT assay. In kind it is functional, cell-based. For orientation: Tetrazolium dyes change colour on reduction, which living cells bring about.
Test [2] concerns Hep 3B2. The test is described as follows: Antiproliferative activity against human Hep3B cells after 48 hrs by MTT assay. In kind it is functional, cell-based.
For test [3], the system named is PBMC. The test is described as follows: Antiproliferative activity against human PBMC after 48 hrs by MTT assay. In kind it is cell-based.
Test [4] deals with MCF7. The test is described as follows: Antiproliferative activity against human MCF7 cells after 48 hrs by MTT assay. In kind it is functional, cell-based. The note with it: MCF7, 48 h.
Test [5] concerns NIH3T3. As to the kind of experiment: Antiproliferative activity against mouse NIH/3T3 cells after 72 hrs by real-time cell analysis. In kind it is cell-based. The note with it: NIH3T3, 72 h.

Each structure is given as a SMILES string.

For `Cc1nc2ccccc2n1CC(=O)NN`, the IC50 in test [1] was 5.34 µM; in test [2], 40.5 µM; in test [3] it was 23 µM; in test [4] it was 24.2 µM.

`COc1ccc2[nH]c(SCC(=O)Nc3ccc(-c4csc(-c5ccccc5)n4)cc3)nc2c1` returned an IC50 in test [5] of 74.6 µM.
